The SangsterLogP compilation

SMILES | logP
Brc1c2ccccc2cc2ccccc12 | 5.37
Brc1c2ccccc2c(Br)c2ccccc12 | 6.29
O=C1c2ccccc2C(=O)c2ccccc21 | 3.28
O=Cc1ccc2ccc3cccc4ccc1c2c34 | 4.23
N#Cc1c2ccccc2cc2ccccc12 | 3.98
COC(=O)c1ccc2ccc3cccc4ccc1c2c34 | 4.73
COC(=O)c1cc2ccc3cccc4ccc(c1)c2c34 | 4.85
Brc1cc2cccc3ccc4cccc1c4c32 | 5.84
CC(=O)c1cc2ccc3cccc4ccc(c1)c2c34 | 4.29
CC(=O)c1c2ccccc2cc2ccccc12 | 3.6
CC(=O)c1cc2cccc3ccc4cccc1c4c32 | 4.16
Brc1ccc2ccc3ccc(Br)c4ccc1c2c34 | 6.73

Further lines, results first:

logP | SMILES
5.27 | Clc1c2ccccc2cc2ccccc12
3.77 | O=Cc1c2ccccc2cc2ccccc12
4.36 | COc1c2ccccc2cc2ccccc12
6.85 | Brc1cc(Br)c2ccc3cccc4ccc1c2c43
3.83 | COC(=O)c1c2ccccc2cc2ccccc12
4.18 | CC(=O)c1ccc2ccc3cccc4ccc1c2c34
6.69 | Brc1ccc2ccc3c(Br)ccc4ccc1c2c43
5.81 | Brc1ccc2ccc3cccc4ccc1c2c34
5.8 | Brc1cc2ccc3cccc4ccc(c1)c2c34
2.23 | NC(=O)c1c2ccccc2cc2ccccc12
